Experimental data reported in US8168644B2, “Quinazolinone derivatives as tubulin polymerization inhibitors” (Janssen Pharmaceutica NV, priority 2008, dated 2012).

Assays:
[1] = test system: Human prostate cancer PC-3 cells; experiment: Anti-proliferative effect, Alamar Blue assay, PC-3; assay type: cell-based; conditions: Homo sapiens, 96 h, 4-day incubation, read-out: PC3 antiproliferative activity pIC50 (converted)
Description: Human prostate cancer PC-3 cells obtained from the ATCC were cultured in HAM'S F12 medium supplemented with 1 mM Sodium Pyruvate, 1.5 g/L Sodium Bicarbonate, 50 μg/ml gentamicin, non-essential amino acids and 10% fetal calf serum.
(§1) Resazurin was purchased from Aldrich (Prod. No. 199303). Potassium ferrocyanide, potassium ferricyanide, KH2PO4 and K2HPO4 were purchased from Sigma (Prod. Nos. P9387, P8131, P5655 and P8281, respectively).
(§2) Potassium Phosphate Buffer 0.1 M (PPB) was made as follows: 2.72 gram KH2PO4 and 13.86 gram K2HPO4 were dissolved in 500 ml milli-Q H2O, the pH was adjusted to pH 7.4 and the volume was brought to 1 liter with milli-Q H2O; the buffer was filter sterilised and stored at room temperature. Resazurin stock solution (PPB-A) was prepared fresh by dissolving 45 mg resazurin in 15 ml PBS. 30 mM potassium ferricyanide (PPB-B) was prepared by dissolving 0.987 gram potassium ferricyanide in 100 ml PPB. 30 mM potassium ferrocyanide (PPB-C) was prepared by dissolving 1.266 gram potassium ferrocyanide in 100 ml PPB.
(§3) Mixture of PPB-A, PPB-B and PPB-C was prepared by mixing equal volumes of the respective solutions. Resazurin work solution (herein termed “Alamar Blue” solution) was prepared by diluting said mixture 20× (vol/vol) in PPB and filter sterilising; the Alamar Blue solution could be kept at 4° C. for a maximum of 2 weeks.
(§4) For experiments in 384 wells plates the cells were seeded at a density of 4.5×10^3 cells/ml in Falcon 384-well culture plates (Life Technologies, Merelbeke, Belgium), black with clear bottom, in 45 μl culture medium. Cells were allowed to adhere to plastic for 24 hours. The tested compound was pre-diluted (1/50 in culture medium) and 5 μl pre-diluted compound was added to the wells. Following 4-day incubation, 10 μl of the Alamar Blue solution was added to each well and the cells were further incubated for 4 hours (HCT116) or 24 hours (PC-3) at 37° C. The fluorescence intensity was measured for each well on a Fluorescence plate reader (Fluoroskan, Labsystems, 540 nm excitation and 590 nm emission)
(§5) The antiproliferative activity was calculated as percentage of remaining viable cells in treated versus control (untreated cells) conditions. Within an experiment, the result for each experimental condition is the mean of 3 replicate wells. When appropriate, the experiments were repeated to establish full concentration-response curves. When appropriate, IC50-values (concentration of the drug, needed to reduce cell growth to 50% of the control) were computed using probit analysis for graded data (Finney, D. J., Probit Analyses, 2nd Ed. Chapter 10, Graded Responses, Cambridge University Press, Cambridge 1962). Herein the effects of test compounds are expressed as pIC50 (the negative log value of the IC50-value) (see Table 3).

[2] = test system: Human colon carcinoma HCT116 cells; experiment: Anti-proliferative effect, Alamar Blue assay, HCT116; assay type: cell-based; conditions: Homo sapiens, HCT-116, 96 h, 4-day incubation, read-out: HCT116 antiproliferative activity pIC50 (converted)
Description: Human colon carcinoma HCT116 cells obtained from the ATCC were cultured in McCoy's 5A medium supplemented with 2 mM L-Glutamine, 50 μg/ml gentamicin and 10% heat inactivated fetal calf serum.
as §1, §2, §3, §4, §5

[3] = test system: human prostate cancer PC3 cells; experiment: Eb1 cellular assay (Eb1 Comet assay); assay type: cell-based; conditions: 1 hour treatment, LAC = concentration where Eb1 foci absent in at least 50% of treated cells
Description: The Eb1 Comet assay relies on the detection of the Eb1 protein at the plus end of polymerizing microtubules (Mimori-Kiyosue, 2000) using indirect immunofluorescence. Disruption of microtubule dynamics through de-polymerization or stabilization results in a de-localization of Eb1 from the growing microtubule ends and this is visualized by the disappearance of Eb1 containing cytoplasmic foci.
Briefly, human prostate cancer PC3 cells obtained from the American Type Culture Collection were grown in 96-well plates (Greiner, cat. no. 655090) in HAM's F12 medium as recommended by the provider (ATCC). The cells were treated for 1 hour at 37° C. with compounds dissolved in DMSO (0.6% final DMSO concentration). The culture medium was then removed by aspiration and the cells were fixed by adding cold methanol (−20° C.). After a 15 minutes incubation at −20° C., the cells were washed twice with DPBS (Gibco) containing 0.5% Triton X-100. Mouse Eb1 antibody (BD Transduction Laboratories, cat. no. 610534) was added to the cells (1/250 dilution in DPBS containing 1% BSA) and incubated overnight at room temperature. The antibody was subsequently removed and the cells washed twice with DPBS, 0.5% Triton X-100. Secondary goat anti-mouse antibody conjugated to Alexa 488 fluorescent dye (Molecular Probes) was added at a 1/500 dilution in DPBS, 1% BSA and incubated for 1 hour at 37° C. The cells were washed twice with DPBS, 0.5% Triton X-100 and then DPBS containing 0.5% Triton X-100 and 1/5000 Hoechst 33342 (Molecular Probes) was added. Microscopy based Eb1 foci visualization was carried out using an IN Cell Analyser 1000 (Amersham Biosciences) using a 20× objective. Compound dependent microtubule disruption was visually determined by the disappearance in Eb1 foci. The lowest active concentration (LAC) was determined as the concentration where Eb1 foci were absent in at least 50% of the treated cells. Herein the effects of test compounds are expressed as pLAC (the negative log value of the LAC-value) (see Table 3).

α-β-Tubulin = α-β-Tubulin polymerization assay; assay type: biochemical; conditions: inhibition of polymerization at 20 μM and 5 μM, reported as score
Description: The tubulin polymerization assay is an adaptation of an assay originally described by Bonne, D. et al. (J. Biol. Chem., 1985, 260:2819-25). The assay kit was purchased from Cytoskeleton, Inc. (catalogue number BK011) and the assay was performed as described by the supplier with the following modifications. The assay was run in a 384-well black Proxiplate (Perkin Elmer) and volumes were adapted accordingly. The reactions were carried out in a final volume of 10 μl. Compounds were added to 25 μl of the reaction mix in 96-well PP plates (Corning) on ice and 10 μl of this mixture was dispensed into duplicates of the 384-well Proxiplates pre-warmed to 37° C. in a Fluoroskan Ascent plate reader (Thermo Scientific). Fluorescence measurements were taken every minute for one hour. The maximum slope of each well was determined (linear regression through 4 consecutive points) and polymerization was calculated as a percentage of polymerization observed in the absence of compound. Compounds were first measured at a concentration of 20 μM and then at 5 μM for those showing more than 50% inhibition at 20 μM as compared to the polymerization observed in the absence of compound. Results are reported in Table F-2 as scores defined as: a compound showing 0 to 50% inhibition at 20 μM is reported as score 1; a compound showing more than 50% inhibition at 5 μM is reported as score 3.

Row | SMILES | melting point [°C] | IC50 [1] [nM] | IC50 [2] [nM] | Eb1 pLAC [3] | tubulin polymerization score (α-β-Tubulin)
1 | CCN1Cc2ccc([C@](C)(C#N)Cc3nc(OC)cc(OC)n3)cc2NC1=O (single isomer, unassigned) [Compound 1] | 95 | 79.4 | 39.8 | >7.5 | 
2 | CCN1Cc2ccc([C@@](C)(C#N)Cc3cccc(C#N)c3)cc2NC1=O [Compound 5] | 152 | > 10000 | > 10000 |  | 1 (a compound showing 0 to 50% inhibition at 20 μM is reported as score 1)
3 | CN1Cc2ccc(C(C)(C#N)Cc3ccccc3)cc2NC1=O (centres unmarked) [Compound 7] | 210 | 501 | 794 | 6.5 | 3 (a compound showing more than 50% inhibition at 5 μM is reported as score 3)
4 | CCN1Cc2ccc(C(C)(C#N)Cc3cccc(I)c3)cc2NC1=O (centres unmarked) [Compound 8] | 83 | 501 | 200 | 6.5 | 3 (a compound showing more than 50% inhibition at 5 μM is reported as score 3)

More lines, main results first:

Row | melting point [°C] | IC50 [1] [nM] | IC50 [2] [nM] | SMILES | Eb1 pLAC [3] | tubulin polymerization score (α-β-Tubulin)
5 | 124 | 501 | 200 | CCN1Cc2ccc([C@](C)(C#N)Cc3ccccc3)cc2NC1=O [Compound 4] |  | 3 (a compound showing more than 50% inhibition at 5 μM is reported as score 3)
6 | 152 | 100 | 50.1 | CCN1Cc2ccc([C@](C)(C#N)Cc3cccc(C#N)c3)cc2NC1=O [Compound 6] | 7 | 3 (a compound showing more than 50% inhibition at 5 μM is reported as score 3)
7 | 84.4 to 102.4 | 316 | 158 | C#Cc1cccc(CC(C)(C#N)c2ccc3c(c2)NC(=O)N(CC)C3)c1 (centres unmarked) [Compound 10] | 7 | 3 (a compound showing more than 50% inhibition at 5 μM is reported as score 3)
